According to patent US4886663A (priority 1983, dated 1989):
Where no end group is shown, it is not given here.

Columns and labels:
rat ligated ileal loops = conditions: in vivo
[1] = system: hyperimmune antisera to biologic ST; format: binding, goat and rabbit
[2] = system: hyperimmune antisera to synthetic ST; format: binding, goat and rabbit
[3] = system: hyperimmune rabbit antiserum to biologic ST; conditions: in vivo
[4] = system: goat hyperimmune antiserum to synthetic ST; conditions: in vivo
suckling mouse = conditions: in vivo
[5] = in vivo, po
[6] = system: rabbit ligated ileal loops; conditions: in vivo

## NTFYCCELCCYPACAGCN (cysteine pairing not given here) [synthetic ST]
Rat ligated ileal loops
  ED50 in rat ligated ileal loops: 2.0 nanograms
  secretory responses in ligated ileal loops compared with biologic ST: Substantial identity of secretory responses
[1]
  Anti-Biol.-ST: percent recognition of assayed ST by antiserum raised to biologic ST: 263
  antigenicity relative to biologic ST Ib, later preparations: about 3 fold
[2]
  Anti-Syn. ST: percent recognition of assayed ST by antiserum raised to synthetic ST: 100
  antigenicity compared with biologic ST: identical
[3]
  mouse units of toxin neutralized by one milliliter of hyperimmune rabbit antiserum to biologic ST: 160 MU
[4]
  mouse units of toxin neutralized by one milliliter of goat hyperimmune antiserum to synthetic ST: 220 MU
Suckling mouse
  Nanograms required to provide a gut: whole body ratio of 0.083: 5.3 ng
  Suckling Mouse (Percent): 120
  biological activity / potency in suckling mouse assay compared with biologic (E. coli) ST: substantially the same as biologic ST
  mouse units of ST activity per microgram: 175 mouse units per microgram
  reduction of ST toxicity by the cross-linking reaction to B subunit: 727 fold
  secretory activity in the suckling mouse assay after dithiothreitol: abolished its secretory activity
  value for one mouse unit: 5.7 nanograms
[5]
  diarrhea after p.o. administration: did not cause diarrhea
[6]
  fluid secretion in rabbit ligated ileal loops: did not cause any fluid secretion
  fluid:length ratio in rabbit ligated ileal loops: 1.1±0.3
